Earlier results, collected in patent US6689400B2, “Process of obtaining compositions of stable lutein and lutein derivatives” (Sabinsa Corporation, priority 2001, dated 2004).

Tests used:
[1] = exposure to white fluorescent light, carefully controlled conditions
[2] = room temperature or higher

- degradation of lutein [1]: 0.8-10.7 % per day
- stability [2]: not stable
SMILES: CC1=C[C@H](O)CC(C)(C)[C@H]1/C=C/C(C)=C/C=C/C(C)=C/C=C/C=C(C)/C=C/C=C(C)/C=C/C1=C(C)C[C@@H](O)CC1(C)C [lutein]
